This is an account of results in EP4813993A1, “COMPOUND, PREPARATION METHOD THEREFOR, AND USE THEREOF” (Sichuan Kelun Pharmaceutical Research Institute Co., Ltd., priority 2023, dated 2025).

pIC50: −log10 of the molar value.

One series deals with T1, Nav1.8 channels (Homo sapiens, UniProt Q9Y5Y9).
T1 construct: expressed in transfected cells
Description: Manual patch-clamp, current of stably overexpressed Nav1.8 channels (resting state voltage program). In kind it is cell-based. The method in brief:
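Whole-cell manual patch clamp on cells stably overexpressing Nav1.8, held at -120 mV and stepped to 0 mV for 50 ms every 20 s (resting-state protocol). Compounds were perfused in ascending concentrations, each for 5 min or until stable; block of peak current was calculated at steady state.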
For orientation: Patch clamp records ionic current or voltage across a cell membrane.

Series [1] can be described thus: Pharmacokinetic study in ICR mice. In kind it is in vivo. Particulars: male, mouse, plasma.
A short description of series [2]: Tissue distribution study (dorsal root ganglia) in SD rats. Particulars: male, rat, oral administration 10 mg/kg. In kind it is in vivo. On the procedure:
Experimental Example 5: Tissue distribution study of compounds in SD rats
Experimental animals: SD rats, male, 6-8 weeks old.
(§1) Compound preparation: 5% (final preparation volume) of DMSO was added to dissolve the test compound, and then 10% (final preparation volume) of Cremophor EL and 85% Saline were sequentially added.
Experimental design: The test compounds were administered to SD rats as a single dose via oral administration (10 mg/kg; n = 3, 3 time points). Blood samples were collected at 0.5 h, 2 h, and 6 h after oral administration, followed by sacrifice of the animals. Dorsal root ganglia were collected, rinsed with ice-cold normal saline to remove residual blood, blotted dry with absorbent paper, and stored at -70 °C for analysis.
Sample test: The concentrations of the designated compound drugs in plasma and tissues were determined by the LC-MS/MS method.

The test system of series [3] is incision pain model. Description: Incision pain model in ICR mice, Von Frey test. In kind it is in vivo. The following applies: Mean + SEM, n = 10; for PWT 50% value (g) Post-surgery, Preadministration / PWT 50% value (g) Pre-surgery: 50 mg/kg group; for PWT 50% value (g) Post-surgery, Preadministration: baseline before administration; for PWT 50% value (g) Pre-surgery: baseline before surgery; for PWT 50% value (g) 0.5 h / PWT 50% value (g) 2 h / PWT 50% value (g) 4 h: 50 mg/kg single dose; for PWT 50% value (g) 0.5 h: 0.5 h after administration; for PWT 50% value (g) 2 h: 2 h after administration; for PWT 50% value (g) 4 h: 4 h after administration. On the procedure:
Experimental Example 6: Pharmacodynamic effect study of compounds in incision pain model in ICR mice Experimental animals: ICR mice, male, 28-35 g.
as §1
A plantar incision pain model was established in mice via surgery before the administration and test. Mice were placed in an anesthesia induction chamber and given 3%-4% isoflurane for anesthesia induction. After the anesthesia induction, a breathing mask was applied, and the isoflurane concentration was adjusted to 1%-2% to prevent the mice from suffering pain during the surgery. Each mouse was placed in a supine position, and the surgical site was disinfected with alcohol and iodophor. Under sterile conditions, a 0.5 cm longitudinal incision was made on the left hind paw surface, 0.2 cm away from the heel, extending toward the toes. The skin and fascia were incised; the plantar muscle was separated, slightly lifted, and longitudinally incised. The skin was then sutured with 5-0 sutures and disinfected.
2. Administration and test
The Von Frey test was performed once before the surgery. On the second day after animal modeling, the test was repeated, and animals meeting the baseline requirements were selected for enrollment. The animals were randomly grouped based on the 50% PWT values, with 10 animals per group. Administration was performed under a double-blind test protocol. The 50% PWT of the animals was measured separately before administration (baseline) and at 0.5 h, 2 h, and 4 h after administration, and a single dose was administered. The model control group was given normal saline, while the compound groups were given the compounds according to the administration doses in the table below.

In series [4] the test system is incision pain model. Description: Incision pain model in ICR mice, Von Frey test. In kind it is in vivo. Particulars: 50 mg/kg single dose, Mean + SEM, n = 10.
Series [5] is described as follows: Tissue distribution study (dorsal root ganglia) in ICR mice. In kind it is in vivo. Particulars: male, mouse, oral administration 20 mg/kg.
In series [6] the test system is acetic acid writhing model. The series can be described thus: Mouse acetic acid writhing model. In kind it is in vivo, ICR mice. On the procedure: Experimental Example 11: Pharmacodynamic effect study of compounds in mouse acetic acid writhing model
Experimental animals: ICR mice, male, 20-24 g.
Compound preparation: 5% (final preparation volume) of DMSO was added to dissolve the test compound, and then 10% (final preparation volume) of Cremophor EL and 85% Saline were sequentially added; an appropriate amount of Etoricoxib was weighed, 5% (final preparation volume) of DMSO was added to dissolve the test compound, and then 5% (final preparation volume) of HS-15 and 90% Saline were sequentially added.
• 1. The mice were randomly grouped based on the body weight for model establishment, with 10 animals per group. A 0.8% (v/v) acetic acid solution was intraperitoneally injected at an injection volume of 10 mL/kg. • 2. Administration and test
Administration was performed 60 min before modeling. After the acetic acid solution was injected, the number of writhing responses in mice was observed. […] The number of writhing responses was observed and recorded during two intervals: 0-15 min and 15-30 min, with a total observation duration of 30 min. Inhibition rate = (number of writhing responses in control group - number of writhing responses in administration group)/number of writhing responses in control group × 100%. The model control group was given normal saline, the positive control group 1 was given etoricoxib at 20 mg/kg, the positive control group 2 was given VX-548 at 50 mg/kg, and the remaining groups were given the compounds of the present disclosure according to the administration doses in the table below.
For orientation: In writhing tests, fewer writhes than in controls are read as antinociception.

T1 sequence (Q9Y5Y9 whole entry): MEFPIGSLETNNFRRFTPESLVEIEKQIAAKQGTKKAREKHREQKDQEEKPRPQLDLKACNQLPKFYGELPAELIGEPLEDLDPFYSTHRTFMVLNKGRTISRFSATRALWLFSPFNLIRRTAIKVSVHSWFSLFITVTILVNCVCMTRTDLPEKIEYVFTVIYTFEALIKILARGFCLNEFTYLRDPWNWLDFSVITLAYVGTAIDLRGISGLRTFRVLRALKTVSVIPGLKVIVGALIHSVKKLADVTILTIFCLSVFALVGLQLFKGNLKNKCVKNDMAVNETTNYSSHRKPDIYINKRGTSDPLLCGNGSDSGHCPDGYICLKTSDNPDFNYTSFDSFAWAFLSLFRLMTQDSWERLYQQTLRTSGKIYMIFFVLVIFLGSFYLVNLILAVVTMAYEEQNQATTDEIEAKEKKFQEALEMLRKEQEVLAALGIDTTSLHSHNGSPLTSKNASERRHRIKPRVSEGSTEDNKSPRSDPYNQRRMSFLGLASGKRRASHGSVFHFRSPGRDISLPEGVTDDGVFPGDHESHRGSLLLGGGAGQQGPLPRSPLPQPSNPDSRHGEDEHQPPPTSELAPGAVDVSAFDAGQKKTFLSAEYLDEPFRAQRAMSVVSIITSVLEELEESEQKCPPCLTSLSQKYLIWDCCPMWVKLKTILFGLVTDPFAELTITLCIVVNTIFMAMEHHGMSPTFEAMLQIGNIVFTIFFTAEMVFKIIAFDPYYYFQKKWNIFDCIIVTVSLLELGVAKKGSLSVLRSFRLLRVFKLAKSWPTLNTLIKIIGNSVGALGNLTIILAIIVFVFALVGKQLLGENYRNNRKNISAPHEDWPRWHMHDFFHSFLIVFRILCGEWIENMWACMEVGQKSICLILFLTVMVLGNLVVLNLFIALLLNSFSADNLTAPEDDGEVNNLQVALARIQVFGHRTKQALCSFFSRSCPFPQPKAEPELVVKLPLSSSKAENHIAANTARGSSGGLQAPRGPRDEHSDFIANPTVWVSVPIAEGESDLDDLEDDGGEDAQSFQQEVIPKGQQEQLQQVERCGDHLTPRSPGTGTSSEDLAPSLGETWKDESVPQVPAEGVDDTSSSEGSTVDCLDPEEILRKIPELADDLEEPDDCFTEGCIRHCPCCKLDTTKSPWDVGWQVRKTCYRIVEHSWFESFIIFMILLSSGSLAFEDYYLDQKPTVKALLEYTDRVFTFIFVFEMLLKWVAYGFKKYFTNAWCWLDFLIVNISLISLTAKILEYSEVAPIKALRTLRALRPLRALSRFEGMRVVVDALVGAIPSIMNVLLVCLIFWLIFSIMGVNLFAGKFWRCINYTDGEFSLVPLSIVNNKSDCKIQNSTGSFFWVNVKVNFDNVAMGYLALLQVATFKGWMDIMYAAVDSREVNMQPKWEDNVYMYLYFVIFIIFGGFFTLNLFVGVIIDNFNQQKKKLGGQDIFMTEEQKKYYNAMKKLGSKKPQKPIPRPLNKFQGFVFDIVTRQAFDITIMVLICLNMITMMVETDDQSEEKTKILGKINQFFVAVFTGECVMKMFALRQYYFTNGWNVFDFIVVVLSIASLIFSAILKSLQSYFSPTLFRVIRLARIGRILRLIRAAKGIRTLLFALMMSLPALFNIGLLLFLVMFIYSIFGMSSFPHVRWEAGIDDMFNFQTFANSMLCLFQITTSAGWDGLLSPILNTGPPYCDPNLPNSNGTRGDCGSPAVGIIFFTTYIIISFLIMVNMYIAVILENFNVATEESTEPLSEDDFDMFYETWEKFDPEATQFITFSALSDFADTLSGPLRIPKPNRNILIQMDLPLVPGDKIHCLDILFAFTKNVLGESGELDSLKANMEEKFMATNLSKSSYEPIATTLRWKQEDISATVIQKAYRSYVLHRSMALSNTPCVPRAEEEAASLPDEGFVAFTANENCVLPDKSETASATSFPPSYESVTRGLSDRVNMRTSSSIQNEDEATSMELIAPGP

What is called pIC50 is the negative decadic logarithm of the IC50, by convention in mol/L. A higher pIC50 goes with a small IC50. As usually defined, the AUC(0-inf) is the area under the concentration-time curve extrapolated to infinity. A lower AUC(0-inf) goes with low exposure. At Nav1.8 channels, `COc1c([C@@H]2C[C@](C)(C(F)(F)F)SC2C(=O)Nc2ccnc([N+](=O)[O-])c2)ccc(F)c1F` (stereo in doubt) [a-7-A, (2S,3S,5R)-3-(3,4-difluoro-2-methoxyphenyl)-5-methyl-N-(2-nitropyridin-4-yl)-5-(trifluoromethyl)tetrahydrothiophene-2-carboxamide] gave a negative logarithm of the IC50 (pIC50) of 9.82. The area under the curve AUC(0-inf) in series [1] (Oral administration, 10 mg/kg) came to 10200 ng·h/mL. The compound further had a total exposure AUC(0-inf) in series [1] (iv, Injection (i.v.), 2 mg/kg) of 2090 ng·h/mL. Further, the concentration at 0.5 h in series [2] (Time 0.5 h) came to 115 ng/g. Moreover, the concentration at 2 h in series [2] (Time 2 h) was 768 ng/g. Further, the concentration at 6 h in series [2] (Time 6 h) came out at 557 ng/g. Besides, in the series on incision pain model [3], the “PWT 50% value (g) Post-surgery, Preadministration” value was determined as 0.27 ± 0.13 g; the “PWT 50% value (g) Pre-surgery” value was 1.43 ± 0.43 g; the “PWT 50% value (g) 0.5 h” value was determined as 0.47 ± 0.16 g; the “PWT 50% value (g) 2 h” value came to 0.72 ± 0.35 g. Also, in the series with incision pain model [3], the “PWT 50% value (g) 4 h” value turned out to be 0.47 ± 0.25 g. In the series with incision pain model [4], the “PWT 50% value (g) AUC0-8h” value was determined as 3.62 ± 1.28 g·h.
For `COc1c([C@@H]2C[C@](C)(C(F)(F)F)S[C@H]2C(=O)Nc2ccnc(N=[N+]=[N-])c2)ccc(F)c1F` [a-20-A, (2R,3S,5R)-N-(2-azidopyridin-4-yl)-3-(3,4-difluoro-2-methoxyphenyl)-5-methyl-5-(trifluoromethyl)tetrahydrothiophene-2-carboxamide], the negative-log IC50 (pIC50) against Nav1.8 channels was 12.00. The total exposure AUC(0-inf) in series [1] (Oral administration, 10 mg/kg) was determined as 15400 ng·h/mL. In addition, in series [1] (iv, Injection (i.v.), 2 mg/kg), the AUC(0-inf) is 1990 ng·h/mL. This compound also registered a concentration at 0.25 h in series [5] (Time 0.25 h) of 1040 ng/g. The concentration at 2 h in series [5] (Time 2 h) was determined as 5900 ng/g. This compound also displayed a concentration at 12 h in series [5] (Time 12 h) of 1910 ng/g. Moreover, in the series on incision pain model [3], the “PWT 50% value (g) Post-surgery, Preadministration” value stood at 0.29 ± 0.09 g; the “PWT 50% value (g) Pre-surgery” value worked out at 1.14 ± 0.21 g; the “PWT 50% value (g) 0.5 h” value was 0.39 ± 0.14 g; the “PWT 50% value (g) 2 h” value was determined as 0.49 ± 0.18 g. The “PWT 50% value (g) 4 h” value with incision pain model [3] is 0.57 ± 0.22 g. Besides, the “Number of writhing responses” value in series [6] (ICR mice, Dose 50 mg/kg, 60 min before 0.8% acetic acid i.p., 30 min observation, Mean + SD, n = 10) is recorded as 17 ± 11. Moreover, the “inhibition of the writhing effect compared with VX-548” value in series [6] (mouse acetic acid writhing model) was “better than VX-548”. In addition, the “PWT 50% value (g) AUC0-8h” value in the series with incision pain model [4] stood at 3.48 ± 0.82 g·h.
